What was measured:
Type in all cases: toxicity, cell-based
[1] = system: HEK-293T; test: Incucyte cell viability with HEK293T; details: human, 10 µM, compound concentration 10 uM
[2] = system: U2OS; test: Incucyte cell viability with U2OS; details: human, 10 µM, compound concentration 10 uM
[3] = system: Fibroblast; test: Incucyte cell viability with human fibroblast; details: 10 µM, compound concentration 10 uM
Further: unitless GR value; below 1 slowed growth and below 0 cell loss.

| SMILES | Growth Rate ([1]; 0 h, replicate number 2) | Growth Rate ([1]; 6 h, replicate number 1) | Growth Rate ([1]; 12 h, replicate number 1) | Growth Rate ([1]; 12 h, replicate number 2) | Growth Rate ([1]; 18 h, replicate number 1) | Growth Rate ([1]; 24 h, replicate number 1) | Growth Rate ([2]; 0 h, replicate number 2) | Growth Rate ([2]; 6 h, replicate number 1) | Growth Rate ([2]; 6 h, replicate number 2) | Growth Rate ([2]; 12 h, replicate number 1) | Growth Rate ([2]; 12 h, replicate number 2) | Growth Rate ([2]; 18 h, replicate number 2) | Growth Rate ([2]; 24 h, replicate number 1) | Growth Rate ([2]; 24 h, replicate number 2) | Growth Rate ([3]; 6 h, replicate number 2) | Growth Rate ([3]; 12 h, replicate number 2) | Growth Rate ([3]; 18 h, replicate number 1) | Growth Rate ([3]; 18 h, replicate number 2) | Growth Rate ([3]; 24 h, replicate number 1) | Growth Rate ([3]; 24 h, replicate number 2) | other results |
| --- | --- | --- | --- | --- | --- | --- | --- | --- | --- | --- | --- | --- | --- | --- | --- | --- | --- | --- | --- | --- | --- |
| O=C1COc2cc(C(=O)N(Cc3ccc(C(=O)Nc4ccncn4)cc3)C3CC3)ccc2N1 | -0.63 | 0.38 | 0.74 | 0.42 | 0.75 | 0.95 | 0.72 | 0.39 | 0.77 | 0.37 | 0.8 | 0.77 | 0.73 | 0.87 | 0.55 | 0.88 | 0.54 | 0.79 | 0.74 | 0.98 | Growth Rate ([1]; 6 h, replicate number 2): 0.01; Growth Rate ([1]; 18 h, replicate number 2): 0.66; Growth Rate ([1]; 24 h, replicate number 2): 0.72; Growth Rate ([2]; 0 h, replicate number 1): -0.53; Growth Rate ([2]; 18 h, replicate number 1): 0.61; Growth Rate ([3]; 6 h, replicate number 1): 0.36; Growth Rate ([3]; 12 h, replicate number 1): 0.28 |
| O=C(Nc1ccccc1Cl)c1cnc2ccc(C3CCNCC3)cn12.O=C(O)C(=O)O |  | -0.96 | -0.83 | -0.61 | -0.53 | -0.28 | -1 | -0.44 | 0.06 | 0.46 | 0.5 | 0.61 | 0.64 | 0.59 | -1 | -0.49 | -0.51 | 0.05 | -0.36 | 0.33 | Growth Rate ([1]; 18 h, replicate number 2): -0.27; Growth Rate ([1]; 24 h, replicate number 2): -0.03; Growth Rate ([2]; 18 h, replicate number 1): 0.62 |
| Cc1nn(-c2ccccc2)c(Nc2ccccc2C(=O)O)c1-c1cc2nccnc2c(F)c1F | -0.55 |  |  |  |  |  |  | 0.75 |  | 1 |  |  |  |  | -0.17 |  |  | 0.57 |  | 0.79 | Growth Rate ([1]; 0 h, replicate number 1): 0.45; Growth Rate ([3]; 0 h, replicate number 2): -0.36; Growth Rate ([3]; 6 h, replicate number 1): 0.39 |
| CN(C)[C@H]1CC[C@H](Nc2ncc3ncnc(Nc4ccc(F)c(Cl)c4)c3n2)CC1 | -1 | -0.21 | -0.11 |  | 0.12 | 0.23 | 0.58 |  | 0.45 | 0.48 | 0.5 | 0.48 | 0.45 | 0.47 | 0.19 | -0.1 | 0.14 | -0.19 | 0.14 | -0.13 | Growth Rate ([2]; 0 h, replicate number 1): -1; Growth Rate ([2]; 18 h, replicate number 1): 0.38; Growth Rate ([3]; 0 h, replicate number 2): -1; Growth Rate ([3]; 6 h, replicate number 1): 0.74; Growth Rate ([3]; 12 h, replicate number 1): 0.23 |
| Cc1c(-c2cc(-c3ccccc3Cl)no2)cnn1C1CCNCC1.Cl |  | -0.95 | -0.84 | -0.43 | -0.72 | -0.68 | -1 | 0.45 | 0.01 | 0.76 | 0.66 | 0.68 | 0.89 | 0.75 | -1 | -0.55 |  | -0.4 | 0.83 | -0.36 | Growth Rate ([1]; 6 h, replicate number 2): -0.85; Growth Rate ([1]; 18 h, replicate number 2): -0.18; Growth Rate ([1]; 24 h, replicate number 2): -0.15; Growth Rate ([2]; 18 h, replicate number 1): 0.87; Growth Rate ([3]; 0 h, replicate number 1): 0.68; Growth Rate ([3]; 6 h, replicate number 1): 0.11; Growth Rate ([3]; 12 h, replicate number 1): -1 |
| O=C(N[C@@H]1C2CCN(CC2)[C@H]1Cc1cccnc1)c1cc2ccccc2o1 [BRADANICLINE] | 0.79 |  |  |  |  | 0.96 |  |  | 0.66 |  | 0.78 | 0.99 | 0.93 | 0.96 |  |  | 0.35 |  | 0.82 |  | Growth Rate ([1]; 0 h, replicate number 1): 0.69; Growth Rate ([1]; 18 h, replicate number 2): 0.96; Growth Rate ([3]; 0 h, replicate number 2): -0.99; Growth Rate ([3]; 12 h, replicate number 1): -0.73 |
| Cc1nn(-c2nc3ccc(Cl)c(Cl)c3[nH]2)c(O)c1C1OC(=O)c2ccccc21 (configuration not stated) |  |  |  |  |  |  |  | 0.82 |  |  |  |  |  |  |  |  |  |  | 0.83 |  | Growth Rate ([1]; 0 h, replicate number 1): 0.09; Growth Rate ([2]; 0 h, replicate number 1): 0.81; Growth Rate ([3]; 0 h, replicate number 1): -1; Growth Rate ([3]; 0 h, replicate number 2): -0.86; Growth Rate ([3]; 6 h, replicate number 1): 0.95 |
| CNC(=O)COc1cc2cc(Nc3nc(N4CCC(C(=O)N(C)C)CC4)ncc3Cl)cc(OC)c2n(C)c1=O |  | 0.46 | 0.74 | 0.41 | 0.57 | 0.67 | 0.59 | 0.94 |  |  | 0.77 | 0.87 | 0.92 | 0.91 | 0.46 |  |  |  |  | 0.87 | Growth Rate ([1]; 6 h, replicate number 2): 0.13; Growth Rate ([1]; 18 h, replicate number 2): 0.58; Growth Rate ([1]; 24 h, replicate number 2): 0.66; Growth Rate ([3]; 0 h, replicate number 2): 0 |
| Cl.NCC(O)c1ccc(O)cc1 (configuration not stated) [OCTOPAMINE HYDROCHLORIDE] | 0.66 | 0.45 |  |  |  |  | -0.87 | 0.64 | 0.65 | 0.99 | 0.92 | 0.87 | 0.97 | 0.95 | -0.67 | 0.8 | -0.19 |  |  |  | Growth Rate ([1]; 0 h, replicate number 1): 0.76; Growth Rate ([1]; 6 h, replicate number 2): 0.94; Growth Rate ([2]; 0 h, replicate number 1): 0.94; Growth Rate ([2]; 18 h, replicate number 1): 0.83 |
| C[C@@H](CO)CCC[C@@H](C)[C@H]1CC[C@H]2[C@@H]3CC=C4C[C@@H](O)CC[C@]4(C)[C@H]3CC[C@]12C |  |  |  | 0.79 |  |  |  |  | 0.82 | 0.84 |  |  |  |  | 0.36 | 0.22 | 0.33 | 0.27 | 0.6 | 0.25 | Growth Rate ([1]; 0 h, replicate number 1): 0.34; Growth Rate ([1]; 24 h, replicate number 2): 1; Growth Rate ([2]; 18 h, replicate number 1): 0.88; Growth Rate ([3]; 0 h, replicate number 1): 0.73; Growth Rate ([3]; 6 h, replicate number 1): 0.92; Growth Rate ([3]; 12 h, replicate number 1): 0.57 |
| CN[C@@H](C)C(=O)N[C@H]1CCCC[C@H]2CC[C@@H](C(=O)N[C@@H](c3ccccc3)c3cn(CCCCc4ccc(CCCCn5cc([C@@H](NC(=O)[C@@H]6CC[C@@H]7CCCC[C@H](NC(=O)[C@H](C)NC)C(=O)N76)c6ccccc6)nn5)cc4)nn3)N2C1=O | 0.24 |  | 0.83 | 0.77 | 0.72 | 0.65 | -0.89 |  |  |  |  |  |  |  | 0.06 | 0.88 | 0.61 | 0.55 |  | 0.66 | Growth Rate ([1]; 0 h, replicate number 1): 0.64; Growth Rate ([1]; 6 h, replicate number 2): 0.99; Growth Rate ([1]; 18 h, replicate number 2): 0.74; Growth Rate ([1]; 24 h, replicate number 2): 0.84; Growth Rate ([2]; 0 h, replicate number 1): -0.95; Growth Rate ([3]; 0 h, replicate number 1): 0.3 |
